Source: PMC11232401, “Characterization of antimalarial activity of artemisinin-based hybrid drugs” (Antimicrobial Agents and Chemotherapy, 2024)
Like-named read-outs stand apart in the source and are kept apart here.

Tests used:
[1] = system: quiescent ART-resistant parasites (F32-ART); test: Quiescent-stage survival assay (QSA); type: cell-based, Plasmodium falciparum; conditions: for Recrudescence time in days (median; range), Quiescent parasites (QSA) DHA / DHA + drug: then DHA plus 700 nM drug 48 h (condition B); for delay of recrudescence in the QSA versus DHA alone: threshold of activity 6 days
Description: The QSA was performed as previously described to determine the drug activity on quiescent ART-resistant parasites ([11]). F32-ART culture parasites were synchronized at the ring stage and adjusted to 3% parasitemia and 2% hematocrit. […] At the end of treatment, parasites from each of the three conditions were washed with RPMI-1640 medium and replaced in new wells in a drug-free culture medium with 10% human serum. Parasitemia was determined daily by thin blood smears until the cultures reached their initial parasitemia (3%), which was defined as the recrudescence day ([11]). The recrudescence capacity of parasites exposed in conditions A and B was compared to determine whether the drug was active on quiescent parasites. Condition C was designed to check that the concentration at which the drug was tested acted on proliferating parasites. If no parasite recrudescence was observed, the experiment was stopped.

[2] = system: F32-TEM (sensitive) early ring-stage parasites; test: Ring-stage survival assay (RSA0-3h); type: cell-based, Plasmodium falciparum; conditions: 700 nM, 6 h pulse, 66 h growth
Description: Early ring-stage parasites (0–3 h post-invasion) of F32-ART and F32-TEM strains highly synchronized by Percoll-Sorbitol treatment were exposed to 700 nM of the drugs or 0.1% DMSO (control) for 6 h. Each drug was tested in duplicate. Parasite pellets were then washed in RPMI-1640 medium before being placed in drug-free culture conditions with 10% human serum and incubated for 66 h ([44]). Survival rates were assessed microscopically by two independent microscopists by counting the parasites in 10,000 RBCs. Three independent experiments were performed.

[3] = system: NF54 strain of P. falciparum; test: Ring-stage-specific drug activity (pLDH); type: cell-based; conditions: Plasmodium falciparum, median ± SEM
Description: Each compound was dissolved in dimethyl sulfoxide (DMSO) and diluted in RPMI-1640 medium into seven different concentrations, which were tested against CQ-susceptible strains (NF54 or D10) or a CQ-resistant strain (W2). Each well of 96-well plates was filled with 100 µL drug and 100 µL parasitized RBC (asynchronous parasite culture), which were mixed to obtain a final parasitemia of 1.0% to 1.5% and 1.0% hematocrit. Plates were incubated for 72 h at 37°C in a standard gas mixture; then, parasite growth was determined by measuring the activity of the parasite lactate dehydrogenase (pLDH) ([38]). Briefly, at the end of incubation, the cultures were carefully resuspended, and 20 µL aliquots were removed and added to 100 µL Malstat reagent in a 96-well microplate. The Malstat reagent is made of 0.125% TritonX-100, 130 mM L-lactate, 30 mM Tris buffer, and 0.62 µM 3-acetylpyridine adenine dinucleotide. After that, 20 µL 1.9 µM nitro blue tetrazolium (NBT) and 0.24 µM phenazine ethyl sulfate were added to the plate. NBT was reduced to blueformazan and spectrophotometrically read at OD 650 nm using a Synergy 4 microplate reader (BioTek, Santa Clara, USA). […] IC50 values were expressed as means of two to three independent experiments, with each drug concentration in duplicate.
The NF54 strain of P. falciparum was employed to test the drugs’ activity against ring stages and asynchronous parasite culture (all stages). The ring stages were obtained by synchronization with D-Sorbitol using a standard method ([39]). Each well of 96-well plates was filled with 100 µL each drug and 100 µL culture containing ring-stage or asynchronous parasites, which were mixed to obtain a final parasitemia of 1.0% to 1.5% and 1.0% hematocrit. […] Plates were processed using the pLDH method, and IC50 values were calculated as described above. At least two to three independent experiments were performed, using two technical replicates.
^[a] Synchronized ring-stage parasites were incubated in the presence of compounds for 6 h, drugs were removed by washing, and plates were incubated for an additional 66 h. ^[b] Asynchronous parasites were incubated in the presence of compounds for 6 h, drugs were removed by washing, and plates were incubated for an additional 66 h. ^[c] Asynchronous parasites were incubated in the presence of compounds for 72 h. ^[a,b^] Experiments were performed in parallel. ^[d] […] Parasite viability was determined by parasite lactate dehydrogenase. Data are from three experiments performed in duplicate. MFQ = mefloquine; DHA = dihydroartemisinin; SEM = standard error of the mean.

[4] = system: Asynchronous NF54 strain of P. falciparum; test: Speed of drug activity (pLDH); type: cell-based, Plasmodium falciparum; conditions: for IC50: Plasmodium falciparum, NF54, asynchronous, mean (95% CI); for Conclusion (speed of antiparasitic activity): from IC50 at 24, 48, 72 h
Description: Each well of 96-well plates was filled with 100 µL drug and 100 µL culture containing asynchronous P. falciparum (NF54 strain) parasites, which were mixed to obtain a final parasitemia of 1.0% to 1.5% and 1.0% hematocrit. The plates were incubated for 24, 48, and 72 h at 37°C with a standard gas mixture. […] Parasite viability was measured using the pLDH method, and IC50 values were calculated as described above. Three independent experiments were performed using two technical replicates.
Figure S3: Speed of antiparasitic activity of hybrids (1) and (2) against CQ-sensitive NF54 strain of P. falciparum. Panel A: Representative response-concentration curves. Panel B: A table summarizing the results. Footnotes for table: ^[a] Parasite viability was accessed at each indicated time (24, 48, or 72 h) after addition of drugs. Values are the mean and 95% confidence interval of one experiment using each concentration of compounds in duplicate. Parasite viability was determined by parasite lactate dehydrogenase (pLDH) assay. DHA = dihydroartemisinin; ATO = atovaquone.

[5] = asynchronous parasites, 6 h drug, wash, additional 66 h, read-out: IC50, Asynchronous
[6] = asynchronous parasites, 72 h continuous drug, read-out: IC50, 72 h
[7] = synchronized ring stages, 6 h drug, wash, additional 66 h, read-out: IC50, Ring stages
[8] = viability at 24 h, read-out: IC50, 24 h
[9] = viability at 48 h, read-out: IC50, 48 h
[10] = viability at 72 h, read-out: IC50, 72 h

| SMILES | Recrudescence time in days (median; range), Quiescent parasites (QSA) DHA / DHA ([1]; 700 nM DHA 6 h, then DHA alone 48 h (condition A)) | Survival rate (%) from the RSA0-3h, F32-TEM (sensitive) [2] [%] | IC50 [3, 5] [nM] | IC50 [3, 6] [nM] | IC50 [3, 7] [nM] | IC50 [4, 8] [nM] | IC50 [4, 9] [nM] | IC50 [4, 10] [nM] | Conclusion (speed of antiparasitic activity) [4] | Recrudescence time in days (median; range), Quiescent parasites (QSA) DHA / DHA + drug ([1]; 700 nM DHA 6 h) | delay of recrudescence in the QSA versus DHA alone [1] [days] |
| --- | --- | --- | --- | --- | --- | --- | --- | --- | --- | --- | --- |
| C[C@H]1[C@@H](O)O[C@@H]2O[C@@]3(C)CC[C@H]4[C@H](C)CC[C@@H]1[C@@]24OO3 [DHA, dihydroartemisinin, reference compound] | 8.5 (8–9) days | 0.04 ± 0.03 | 4.6 ± 0.9 | 2.1 ± 0.6 | 5 ± 0.5 | 8.3 | 2.9 | 2.7 | Fast-acting |  |  |
| COCCOCCOCCOCCn1c(-c2ccc(-n3cc(-c4ccc(OC5OC6OC7(C)CCC8C(C)CCC(C5C)C68OO7)cc4)nn3)cc2)nc2ccccc21 (centres unmarked) [Hybrid 1] |  | 0.05 ± 0.03 | 3.5 ± 0.3 | 3 ± 0.3 | 1.5 ± 0.3 | 2.4 | 3 | 2 | Fast-acting | 11.5 (11–12) days | 0.5 |
| CC1CCC2C(C)C(OC(=O)CCC(=O)OCCNc3ccnc4cc(Cl)ccc34)OC3OC4(C)CCC1C32OO4 (centres unmarked) [Hybrid 2] |  | 0.04 ± 0.02 | 19.1 ± 1.8 | 8.1 ± 1 | 9 ± 1.5 | 9.4 | 4.3 | 5.6 | Fast-acting | 9 (8–10) days | 3 |
